# Test results from PMC11783601, “Analogue-Sensitive Inhibition of Histone Demethylases Uncovers Member-Specific Function in Ribosomal Protein Synthesis” (Journal of the American Chemical Society, 2025).
# “Also recorded” adds a separate entry of the source.
# Key:
# Assay in all cases: H3K9me3 Western blot of nuclear extracts of transfected HEK293T cells
# Type in all cases: cell-based
# [1] = biological target: T1, full-length wild type KDM4E (Homo sapiens, UniProt B2RXH2)
# T1 construct: HEK293T cells were transfected with full-length wild type KDM4B-E or their respective mutants; host or cells: HEK293T
# Source text: (§1) KDM4B and C are structurally homologous to KDM4A, and KDM4D and E have a catalytic pocket near-identical to that of KDM4A but lack the Tudor and PHD domains known to bind trimethylated lysine in histones (Figure 1B).[11] HEK293T cells were transfected with full-length wild type KDM4B-E or their respective mutants. Western blot analysis of nuclear preparations using the H3K9me3 antibody confirmed all of the proteins to be catalytically active (Figures 4G–N and S32–S35).
# (§2) KDM4A mammalian expression plasmid in CMV vector was purchased from Addgene (plasmid #24180). KDM4B mammalian expression plasmid in CMV vector was purchased from Addgene (plasmid #24181). KDM4C mammalian expression plasmid in CMV vector was purchased from Addgene (plasmid #24214). KDM4D mammalian expression plasmid in pReciever vector was purchased from Genecopoia (EX-Z0917-M06.) KDME mammalian expression plasmid in pRP-EXP was designed from Vector Builder. The KDM4A-F185A, KDM4B-F186A, KDM4C -F187A, KDM4D-F189A, and KDM4E F186A mutants were generated using Quikchange Lightening Mutagenesis Kit (Agilent) according to manufacturer’s protocol and confirmed by Sanger […]
# (§3) HEK293T/17 cells (ATCC) were grown in Delbucco’s Modified Eagle Medium (DMEM) (Corning) with 10% FBS at 37 °C (Corning), 5% CO2, and 95% relative humidity in a 6-well cell culture plate. When cells reached 90% confluency, 3 µg of plasmid and 6 µg lipofectamine 2000 (Invitrogen: 11668019) were incubated with 100 µL OptiMem. After 5 minutes the plasmid and lipofectamine were combined and incubated at room temperature for 20 minutes and added to the cell culture disk. Cells were returned to the incubator to grow for 4-6 hours. This was followed by treatment of compound treatment (n-octyl IOX121,22 or a specific NOG ester) at indicated concentrations and further culture for specified time. The media was removed, and cells were washed with ice cold PBS (Corning), then trypsinized with TrpLE Express (Gibco). The trypsinization reaction was quenched with DMEM 10% FBS and cells were pelleted then washed once with ice cold PBS. The nuclear extracts were generated by first resuspending the cell pellets in 700 µL nuclear isolation buffer (15 mM Tris pH 7.5, 60 mM KCl, 15 mM NaCl, 5 mM MgCl2, 1 mM CaCl2, 1mm DTT, 2 mM Na3Van, 250 mM sucrose, 1X Pierce protease inhibitor (Thermo Fisher #PIA32955), 1 mM PMSF, 0.3% NP40 diluted to volume with MilliQ H2O) and incubated on ice for 5 minutes.23 The samples were then pelleted by centrifugation at 2000 rcf for 5 minutes.
# (§4) The supernatant was removed, and the pelleted nuclei were resuspended in 200 µL Pierce IP lysis buffer (Thermo Fisher #87787) containing 1X Pierce protease inhibitor and left on ice for 5 minutes. The nuclei were then sonicated at 100% amp for 5 minutes (pulsed 1 minute “on”, 20 seconds “rest”) using a Qsonica-Q700, cuphorn sonicator. The samples were pelleted once again at 2000 rcf for 5 minutes and the supernatant containing the nuclear extracts were collected. MgCl2 (1M) solution was added to each sample give a final concentration of 6mM. […]
# (§5) Prism with the corresponding bars representing the mean and standard deviation of the population.
# (§6) For the time dependent imaging, cells containing the transfected KDM4A mutant were identified by their HA signal. These cells were used to create a selection which was then imposed onto the respective H3K9me3 or BrdU images. The mean signal was then measured for H3K9me3 or BrdU only within the cells expressing the KDM4A mutant. To compare changes in H3K9me3 or BrdU between trials, the quantification values were normalized to the mean signal at t=0. The normalized, mean signal and error for H3K9me3 or BrdU were then plotted in GraphPad Prism.
# (§7) 21. General protocol for Western blotting
# (§8) Assay samples were mixed with appropriate volume of 4X Laemmli Dye (Bio-Rad), heated at 95 °C for 5 minutes and loaded onto 4–12% Criterion™ XT Bis-Tris protein gels (Bio-Rad #3450123) or in-house prepared SDS-polyacrylamide gel and subjected to electrophoresis […]
# [2] = biological target: T2, full-length wild type KDM4D (Homo sapiens, UniProt Q6B0I6)
# T2 construct: HEK293T cells were transfected with full-length wild type KDM4B-E or their respective mutants; host or cells: HEK293T
# Source text: as §1, §2, §3, §4, §5, §6, §7, §8
# [3] = biological target: T3, full-length wild type KDM4B (Homo sapiens, UniProt O94953); conditions: n-octyl IOX1 10 μM
# T3 construct: HEK293T cells were transfected with full-length wild type KDM4B-E or their respective mutants; host or cells: HEK293T
# Source text: as §1, §2, §3, §4, §5, §6, §7, §8
# [4] = biological target: T4, full-length wild type KDM4C (Homo sapiens, UniProt Q9H3R0)
# T4 construct: HEK293T cells were transfected with full-length wild type KDM4B-E or their respective mutants; host or cells: HEK293T
# Source text: as §1, §2, §3, §4, §5, §6, §7, §8
# T1 sequence (B2RXH2 whole entry): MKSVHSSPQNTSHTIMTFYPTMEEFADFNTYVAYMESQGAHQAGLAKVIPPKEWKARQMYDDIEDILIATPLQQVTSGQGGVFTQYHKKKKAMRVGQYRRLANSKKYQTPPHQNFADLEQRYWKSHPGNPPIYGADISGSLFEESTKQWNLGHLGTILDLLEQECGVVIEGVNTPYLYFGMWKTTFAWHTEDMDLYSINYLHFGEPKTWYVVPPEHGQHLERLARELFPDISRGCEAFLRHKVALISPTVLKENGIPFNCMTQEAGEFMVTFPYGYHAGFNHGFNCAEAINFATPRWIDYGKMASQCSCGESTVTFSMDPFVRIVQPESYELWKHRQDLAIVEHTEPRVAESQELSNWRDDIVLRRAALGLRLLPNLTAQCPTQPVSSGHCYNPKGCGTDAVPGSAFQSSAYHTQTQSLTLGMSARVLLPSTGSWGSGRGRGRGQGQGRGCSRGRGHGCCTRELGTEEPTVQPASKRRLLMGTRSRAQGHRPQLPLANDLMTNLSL
# T4 sequence (Q9H3R0 whole entry): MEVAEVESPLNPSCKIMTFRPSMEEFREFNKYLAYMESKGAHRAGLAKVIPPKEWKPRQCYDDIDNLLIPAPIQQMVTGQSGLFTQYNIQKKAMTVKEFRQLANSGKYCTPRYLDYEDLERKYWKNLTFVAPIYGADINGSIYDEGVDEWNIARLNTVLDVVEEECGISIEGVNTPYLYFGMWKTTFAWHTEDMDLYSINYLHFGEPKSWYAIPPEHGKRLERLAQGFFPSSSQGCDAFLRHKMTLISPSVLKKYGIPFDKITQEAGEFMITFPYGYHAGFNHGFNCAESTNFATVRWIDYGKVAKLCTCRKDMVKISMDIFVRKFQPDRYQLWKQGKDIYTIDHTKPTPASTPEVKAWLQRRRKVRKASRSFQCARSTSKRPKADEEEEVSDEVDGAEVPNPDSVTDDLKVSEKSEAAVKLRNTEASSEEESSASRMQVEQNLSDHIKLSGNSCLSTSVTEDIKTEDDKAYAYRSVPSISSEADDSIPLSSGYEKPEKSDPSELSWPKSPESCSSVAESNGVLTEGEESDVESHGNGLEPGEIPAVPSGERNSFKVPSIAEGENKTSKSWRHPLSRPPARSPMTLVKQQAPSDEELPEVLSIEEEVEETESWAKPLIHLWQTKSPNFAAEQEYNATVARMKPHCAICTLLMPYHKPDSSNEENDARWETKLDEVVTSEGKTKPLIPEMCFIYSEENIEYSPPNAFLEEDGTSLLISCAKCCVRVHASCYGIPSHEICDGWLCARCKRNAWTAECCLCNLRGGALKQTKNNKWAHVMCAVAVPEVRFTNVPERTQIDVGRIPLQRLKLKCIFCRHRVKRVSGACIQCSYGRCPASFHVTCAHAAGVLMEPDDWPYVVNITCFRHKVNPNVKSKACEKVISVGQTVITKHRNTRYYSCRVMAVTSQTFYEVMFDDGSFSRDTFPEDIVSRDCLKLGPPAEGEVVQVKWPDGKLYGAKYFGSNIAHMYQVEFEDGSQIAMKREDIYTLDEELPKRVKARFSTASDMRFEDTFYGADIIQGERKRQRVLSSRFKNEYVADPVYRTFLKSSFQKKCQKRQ
# T3 sequence (O94953 whole entry): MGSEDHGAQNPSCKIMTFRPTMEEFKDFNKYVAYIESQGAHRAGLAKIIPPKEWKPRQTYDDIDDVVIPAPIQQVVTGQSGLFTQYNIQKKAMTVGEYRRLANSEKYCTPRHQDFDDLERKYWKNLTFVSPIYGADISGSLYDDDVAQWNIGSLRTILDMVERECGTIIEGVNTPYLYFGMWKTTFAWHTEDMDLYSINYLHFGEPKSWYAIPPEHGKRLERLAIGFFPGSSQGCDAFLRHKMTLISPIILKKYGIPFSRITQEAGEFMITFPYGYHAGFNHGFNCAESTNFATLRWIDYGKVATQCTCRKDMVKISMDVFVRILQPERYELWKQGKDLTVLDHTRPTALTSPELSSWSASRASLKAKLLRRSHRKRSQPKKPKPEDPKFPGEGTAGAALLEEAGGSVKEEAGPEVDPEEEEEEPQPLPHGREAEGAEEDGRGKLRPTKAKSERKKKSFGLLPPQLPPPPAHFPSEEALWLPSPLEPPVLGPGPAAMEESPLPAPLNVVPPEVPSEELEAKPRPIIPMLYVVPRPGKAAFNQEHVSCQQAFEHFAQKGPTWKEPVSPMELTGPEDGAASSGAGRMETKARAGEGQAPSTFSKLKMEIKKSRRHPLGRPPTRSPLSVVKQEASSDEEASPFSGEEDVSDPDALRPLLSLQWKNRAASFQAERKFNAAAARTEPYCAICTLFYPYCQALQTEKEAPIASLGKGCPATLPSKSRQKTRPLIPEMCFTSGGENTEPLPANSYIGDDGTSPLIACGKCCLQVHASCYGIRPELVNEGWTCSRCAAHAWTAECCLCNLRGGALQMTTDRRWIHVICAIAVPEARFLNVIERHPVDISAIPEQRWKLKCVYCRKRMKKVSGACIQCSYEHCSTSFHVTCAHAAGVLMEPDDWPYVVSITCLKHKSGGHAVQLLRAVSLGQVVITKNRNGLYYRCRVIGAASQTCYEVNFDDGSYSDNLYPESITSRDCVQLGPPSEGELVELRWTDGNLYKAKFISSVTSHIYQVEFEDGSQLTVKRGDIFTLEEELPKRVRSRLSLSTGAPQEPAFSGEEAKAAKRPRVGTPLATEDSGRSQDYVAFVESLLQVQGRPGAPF
# T2 sequence (Q6B0I6 whole entry): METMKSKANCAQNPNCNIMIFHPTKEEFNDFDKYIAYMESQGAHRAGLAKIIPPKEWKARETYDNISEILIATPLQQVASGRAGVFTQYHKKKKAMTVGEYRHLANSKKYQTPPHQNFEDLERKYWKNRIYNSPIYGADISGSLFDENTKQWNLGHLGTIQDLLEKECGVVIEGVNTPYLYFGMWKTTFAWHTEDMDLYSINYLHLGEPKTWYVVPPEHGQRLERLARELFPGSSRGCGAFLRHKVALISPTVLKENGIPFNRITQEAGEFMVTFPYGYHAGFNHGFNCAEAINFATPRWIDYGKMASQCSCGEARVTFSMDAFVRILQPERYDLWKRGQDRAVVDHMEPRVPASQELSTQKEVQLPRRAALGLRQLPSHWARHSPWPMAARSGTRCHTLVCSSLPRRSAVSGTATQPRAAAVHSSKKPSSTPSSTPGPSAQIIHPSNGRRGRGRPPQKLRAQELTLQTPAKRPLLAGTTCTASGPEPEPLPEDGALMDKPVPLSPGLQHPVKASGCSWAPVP
smiles,measurement,setting,value
CCCCCCCCOC(=O)c1ccc(O)c2ncccc12 [n-octyl IOX1],inhibition of wild type KDM4E H3K9me3 demethylation,[1],Dose-dependent inhibition; also recorded: significantly reduced
same,inhibition of wild type KDM4D H3K9me3 demethylation,[2],Dose-dependent inhibition; also recorded: significantly reduced
same,inhibition of wild type KDM4B H3K9me3 demethylation,[3],Dose-dependent inhibition; also recorded: significantly reduced
same,inhibition of wild type KDM4C H3K9me3 demethylation,[4],Dose-dependent inhibition; also recorded: significantly reduced
